Laboratory results as given in the NIST ThermoML archive (doi:10.1021/acs.jced.8b00720).
Numbers after ± are expanded uncertainties.

What was measured:
[1] = Molar enthalpy of transition or fusion; conditions: Crystal; DSC
[2] = Crystal; DSC

Question: For CC[C@@H](C(N)=O)N1CCCC1=O [(S)-2-(2-oxopyrrolidin-1-yl)butanamide], which “Molar enthalpy of transition or fusion” value [1] is on record?
Answer: 7.07 ± 0.239 kcal/mol

Question: What about the Triple point temperature [2] of the same compound?
Answer: 389.85 ± 1.2 K
